In patent publication US11318167B2, “Isolation of fusion-competent myoblasts and therapeutic applications thereof related to muscular dystrophy” (THE JOHNS HOPKINS UNIVERSITY, priority 2015, dated 2022):

Assays:
[1] = test system: canonical WNT signaling pathway; assay: β-catenin translocation into the nucleus (canonical WNT signaling); format: cell-based, human
Excerpt: The present invention was created through a number of discoveries. First, to harness the potential of hPSCs, a protocol to direct hPSCs into the skeletal muscle lineage was developed. As the somite is an intermediate stage between hPSCs and myogenic progenitor cells (Bentzinger et al, 2012; Dequeant and Pourquie, 2008) (FIG. 6A), a MESOGENIN1::eGFP reporter human embryonic stem cell (hESC) line was generated with the CRISPR/Cas9 system (Mali et al, 2013) (FIG. 6B-6D), because MESOGENIN1 is a genetic marker for the pre-somite mesoderm fate (Fior et al., 2012).

[2] = test system: MESOGENIN1::eGFP reporter human embryonic stem cell (hESC) line; assay: MESOGENIN1::eGFP reporter hESC line, pre-somite mesoderm induction (day 4); format: cell-based
Excerpt: The present invention was created through a number of discoveries. First, to harness the potential of hPSCs, a protocol to direct hPSCs into the skeletal muscle lineage was developed. As the somite is an intermediate stage between hPSCs and myogenic progenitor cells (Bentzinger et al, 2012; Dequeant and Pourquie, 2008) (FIG. 6A), a MESOGENIN1::eGFP reporter human embryonic stem cell (hESC) line was generated with the CRISPR/Cas9 system (Mali et al, 2013) (FIG. 6B-6D), because MESOGENIN1 is a genetic marker for the pre-somite mesoderm fate (Fior et al., 2012). […] For myogenic differentiation, hESCs/hiPSCs were rendered to single cells using Accutase® solution, and plated on gelatin for 10 minutes to remove MEFs. Non-adherent cells were collected and plated on Geltrex™ treated dishes, at a density of 1.5×10^5 cells per well of a 24-well plate, in the presence of MEF-conditioned N2 media containing 10 ng/ml of FGF-2 and 10 μM of Y-27632 (Cayman Chemical Co.) (day 0). The N2 medium, described in detail, contains DMEM/F12 powder, glucose, sodium bicarbonate, insulin, putrescine, progesterone, sodium selenite, and transferrin. From the next day (day 1), media was changed at every other day. BIO (30 nM-250 nM), lithium chloride (20 μM-20 mM), Kenpallone (1 μM-10 μM), SB 216763 (1 μM-10 μM), WNT-1 (10 ng/ml-100 ng/ml), WNT-3A (10 ng/ml-100 ng/ml), WNT-7A (10 ng/ml-100 ng/ml), SBE13 hydrochloride (0.1 nM-10 μM), and OTSSP167 hydrochloride (0.1 nM-10 nM) were tested during day 1 to day 4, as well as during day 4 to day 8. Final concentrations of CHIR99021 and DAPT treatment are 3 μM and 10 μM, respectively.

[3] = test system: control hiPSC-derived myoblasts; assay: Effect of DMD-myoblast conditioned media / BMP4 on control hiPSC-derived myoblasts; format: cell-based, human; details: BMP4 four concentrations, 7.5 μg/ml to 25 μg/ml; compared with inhibitive effect of DMD-myoblast CM
Method: FIG. 10A-10D is related to FIG. 5 and illustrates the effect of BMP4 on myoblasts and its pharmacological rescue. (A) Increased level of BMP4 expression in DMD-myoblasts than control myoblasts. (B-C) Inhibitive effect of conditioned media (CM, harvested after 24 hr incubation) from DMD-myoblasts on fusion index (B), and MYOG, and MYOD1 expression (C) of control hiPSC-derived myoblasts. […] (D) The decreased fusion index in DMD-CM-treated myoblasts was rescued by ‘dual SMAD inhibition’ compounds. (*, P≤0.05; ***, P≤0.001; ****, P≤0.0001, One-way ANOVA followed by Newman-Keuls test). n=3-5. All values represent means and s.d.
To find pharmacological rescue of the in vitro phenotypes, aberrant BMP and TGFβ signaling indicated by increased nuclear localization of pSMAD proteins in DMD-myoblasts (FIG. 3C-3D) was studied. Increased levels of BMP4 in the conditioned media (CM) of DMD-myoblasts (FIG. 10A) was detected. […] The effect of CM of DMD-myoblasts was reproduced by treatment with BMP4 protein in the culture media, which was reversed by treatment with ‘dual-SMAD’ inhibition compounds (FIG. 10D) (LDN+SB: LDN193189 and SB431542).

Cc1c[nH]c(-c2cnc(NCCNc3ccc(C#N)cn3)nc2-c2ccc(Cl)cc2Cl)n1.Cl [CHIR99021]
β-catenin translocation into the nucleus [1]: β-catenin translocation into the nucleus
expression of MESOGENIN1::eGFP (cells out of total cells in a dish) ([2]; brief treatment 4 days after day 0, read at day 4, final concentration 3 μM): 80.8±11.3%
expression of TBX6 (positive cells) ([2]; brief treatment 4 days, read at day 4): 67.4±10.4%
expression of PAX3 ([2]; brief treatment 4 days, read at day 4, dose-dependent manner): significantly increased expression

B1: BMP4: BMP4 protein added to the culture media (protein, UniProt P12644 293-408, looked up)
Bone morphogenetic protein 4: SPKHHSQRARKKNKNCRRHSLYVDFSDVGWNDWIVAPPGYQAFYCHGDCPFPLADHLNSTNHAIVQTLVNSVNSSIPKACCVPTELSAISMLYLDEYDKVVLKNYQEMVVEGCGCR
MYOG and MYOD1 expression of control hiPSC-derived myoblasts [3]: recapitulated the effect of CM of DMD-myoblasts
fusion index of control hiPSC-derived myoblasts [3]: recapitulated the effect of CM of DMD-myoblasts
